# Test system: 192522-019-R-J2-PDC complex tumor spheroid viability
# Experiment: Anticancer human tumor 192522-019-R-J2-PDC patient-derived colon adenocarcinoma cell line growth inhibition [POLQ]
# Settings: for IC50: curve of first compound; for viability, T/C: stronger effect = lower value
# Procedure: Multicellular complex tumor spheroid response to Polymerase (POL) inhibitors (novobiocin, ART-558, RP6685) in combination with a variety of drugs and investigational agents in selected tumor cell lines
# The POL inhibitors (novobiocin, ART-558, and RP6685) were evaluated both individually and in combination with standard of care and investigational anticancer small molecules within a complex spheroid model of solid tumors. . Complex spheroids include a stromal component modeled by human endothelial cells (HUVEC) and fibroblasts modeled by human mesenchymal stem cells (MSCs). The concentration ranges selected for each drug and investigational agent were based upon clinically achievable concentrations if the clinical Cmax of the agent was known.
# Compounds. The drugs and investigational agents: novobiocin (NSC847541), ART-558 (NSC835418), RP-6685 (NSC848927), peposertib (NSC802822), ceralasertib (NSC780249), elimusertib (NSC800525), camonsertib (NSC841442), AZD-1390 (NSC803789), olaparib (NSC753686), talazoparib (NSC767125), rucaparib (NSC756644), sotorasib (NSC818433), MRTX-1133 (NSC836407), SN-38 (NSC673596), topotecan (NSC609699), epotoside (NSC141540), doxorubicin (NSC123127), gemcitabine (NSC613327), 5-fluorouracil (NSC19893), paclitaxel (NSC125973), vemurafenib (NSC761431), MSA-2 (NSC828583), SN-011 (NSC837082), adavosertib (NSC754352), prexasertib (NSC758257), carboplatin (NSC241240) and oxaliplatin (NSC266046), were obtained from the National Cancer Institute (NCI) Developmental Therapeutics Program Chemical Repository (21). The FDA-approved anticancer drug set is available from the Developmental Therapeutics Program at https://dtp.cancer.gov/organization/dscb/obtaining/. […] The stock solutions were prepared in dimethyl sulfoxide (DMSO, Sigma-Aldrich, St. Louis, MO, cat. D2650), except for the platinum compounds which were prepared in saline (Quality Biological, Gaithersburg, MD, cat. 114-055-101), at 800-fold the tested concentration and stored at -70 degrees C prior to their use. All drugs and investigational agents were tested over a range starting from a high concentration at or near the clinical Cmax and decreasing in half-log increments. If the clinical Cmax for an agent had not been determined, the highest concentration tested was 10 microM, except for SN-38, which was tested at a high concentration of 1 microM.
# Cell Culture. All cells were maintained in an incubator at 37 degrees C and 5% CO2 with 95% humidity. The PDC lines were cultured according to standard operating procedures established by the NCI PDMR (https://pdmr.cancer.gov). Table 3 of the manuscript, lists the cell lines along with the number of the three cell types plated to form the mct-spheroids and media for tumor cell growth. After thawing, all PDC lines, except 997537-175-T-J1-PDC and 415267-285-R-J2-PDC, were cultured in Matrigel-coated flasks prepared with a working solution of 1X Ham's F-12 nutrient mix, without supplementation (Thermo Fisher Scientific, cat. 11765054), 100 U/mL penicillin-streptomycin (Thermo Fisher Scientific, cat. 15140122), and 2.5% Matrigel (Corning Inc., Corning, NY, cat. 354248) for the first three passages. The two PDC lines 997537-175-T-J1-PDC and 415267-285-R-J2-PDC were cultured on uncoated flasks. The 857933-349-R-J2-PDC line was cultured in 6C/Colon 1B media containing advanced DMEM/F-12 (Thermo Fisher Scientific, cat. 12634028), 10 mM HEPES (Thermo Fisher Scientific, cat. 15630080), 1X GlutaMAX supplement (Thermo Fisher Scientific, cat. 35050061), 0.1 mg/mL primocin (InvivoGen, San Diego, CA, cat. ant-pm-2), 10% defined fetal bovine serum, heat inactivated (HyClone Laboratories Inc., Logan, UT, cat. SH30070.03HI), 50% L-WRN conditioned media (ATCC, cat. CRL-3276), 1.25 mM N-Acetyl-L-cysteine (Sigma-Aldrich, cat. A9165), 10 mM nicotinamide (Sigma-Aldrich, cat. N0636), 1X B-27 supplement (Thermo Fisher Scientific, cat. 17504044), 1X N-2 supplement (Thermo Fisher Scientific, cat. […]
# [1] = second compound 0.0316 µM, first compound 0.0316 µM
# [2] = second compound 0.0316 µM, first compound 0.1 µM
# [3] = second compound 0.0316 µM, first compound 0.316 µM
# [4] = second compound 0.0316 µM, first compound 1 µM
# [5] = second compound 0.0316 µM, first compound 3.16 µM
# [6] = second compound 0.0316 µM, first compound 10 µM
# [7] = second compound 0.1 µM, first compound 0.0316 µM
# [8] = second compound 0.1 µM, first compound 0.1 µM
# [9] = second compound 0.1 µM, first compound 0.316 µM
# [10] = second compound 0.1 µM, first compound 1 µM
# [11] = second compound 0.1 µM, first compound 3.16 µM
# [12] = second compound 0.1 µM, first compound 10 µM
# [13] = second compound 0.316 µM, first compound 0.0316 µM
# [14] = second compound 0.316 µM, first compound 0.1 µM
# [15] = second compound 0.316 µM, first compound 0.316 µM
# [16] = second compound 0.316 µM, first compound 1 µM
# [17] = second compound 0.316 µM, first compound 3.16 µM
# [18] = second compound 0.316 µM, first compound 10 µM
# [19] = second compound 1 µM, first compound 0.0316 µM
# [20] = second compound 1 µM, first compound 0.1 µM
# [21] = second compound 1 µM, first compound 0.316 µM
# [22] = second compound 1 µM, first compound 1 µM
# [23] = second compound 1 µM, first compound 3.16 µM
# [24] = second compound 1 µM, first compound 10 µM
# [25] = second compound 3.16 µM, first compound 0.0316 µM
# [26] = second compound 3.16 µM, first compound 0.1 µM
# [27] = second compound 3.16 µM, first compound 0.316 µM
# [28] = second compound 3.16 µM, first compound 1 µM
# [29] = second compound 3.16 µM, first compound 3.16 µM
# [30] = second compound 3.16 µM, first compound 10 µM
# [31] = second compound 10 µM, first compound 0.0316 µM
# [32] = second compound 10 µM, first compound 0.1 µM
# [33] = second compound 10 µM, first compound 0.316 µM
# [34] = second compound 10 µM, first compound 1 µM
# [35] = second compound 10 µM, first compound 3.16 µM
# [36] = second compound 10 µM, first compound 10 µM
# 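Further: spheroids exposed to drugs for seven days before reading.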
# 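Wherever viability, T/C is given: 100% = DMSO vehicle control viability in luminescence.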
structure (smiles),measurement,setting,value
CNCc1ccc(-c2[nH]c3cc(F)cc4c3c2CCNC4=O)cc1 + COC1C(OC(N)=O)C(O)C(Oc2ccc3c(O)c(NC(=O)c4ccc(O)c(CC=C(C)C)c4)c(=O)oc3c2C)OC1(C)C,IC50,second compound 0.0316 µM,> 10 µM
same,IC50,second compound 0.1 µM,> 10 µM
same,IC50,second compound 0.316 µM,> 10 µM
same,IC50,second compound 1 µM,> 10 µM
same,IC50,second compound 3.16 µM,> 10 µM
same,IC50,second compound 10 µM,> 10 µM
same,"viability, T/C",[1],94.4%
same,"viability, T/C",[2],90.5%
same,"viability, T/C",[3],96%
same,"viability, T/C",[4],99.2%
same,"viability, T/C",[5],102%
same,"viability, T/C",[6],99.3%
same,"viability, T/C",[7],110%
same,"viability, T/C",[8],96%
same,"viability, T/C",[9],96.4%
same,"viability, T/C",[10],103%
same,"viability, T/C",[11],114%
same,"viability, T/C",[12],96.4%
same,"viability, T/C",[13],107%
same,"viability, T/C",[14],102%
same,"viability, T/C",[15],102%
same,"viability, T/C",[16],107%
same,"viability, T/C",[17],99.5%
same,"viability, T/C",[18],101%
same,"viability, T/C",[19],99.7%
same,"viability, T/C",[20],96%
same,"viability, T/C",[21],98.5%
same,"viability, T/C",[22],104%
same,"viability, T/C",[23],102%
same,"viability, T/C",[24],97.5%
same,"viability, T/C",[25],110%
same,"viability, T/C",[26],98.7%
same,"viability, T/C",[27],102%
same,"viability, T/C",[28],101%
same,"viability, T/C",[29],99.9%
same,"viability, T/C",[30],95.7%
same,"viability, T/C",[31],102%
same,"viability, T/C",[32],95%
same,"viability, T/C",[33],106%
same,"viability, T/C",[34],96.9%
same,"viability, T/C",[35],98.6%
same,"viability, T/C",[36],102%
O=C(c1cc(Cc2n[nH]c(=O)c3ccccc23)ccc1F)N1CCN(C(=O)C2CC2)CC1 + COC1C(OC(N)=O)C(O)C(Oc2ccc3c(O)c(NC(=O)c4ccc(O)c(CC=C(C)C)c4)c(=O)oc3c2C)OC1(C)C,IC50,second compound 0.0316 µM,> 10 µM
same,IC50,second compound 0.1 µM,> 10 µM
same,IC50,second compound 0.316 µM,> 10 µM
same,IC50,second compound 1 µM,> 10 µM
same,IC50,second compound 3.16 µM,> 10 µM
same,IC50,second compound 10 µM,> 10 µM
same,"viability, T/C",[1],113%
same,"viability, T/C",[2],95.1%
same,"viability, T/C",[3],110%
same,"viability, T/C",[4],93%
same,"viability, T/C",[5],102%
same,"viability, T/C",[6],104%
same,"viability, T/C",[7],105%
same,"viability, T/C",[8],102%
same,"viability, T/C",[9],96.2%
same,"viability, T/C",[10],98.2%
same,"viability, T/C",[11],101%
same,"viability, T/C",[12],97.1%
same,"viability, T/C",[13],99%
same,"viability, T/C",[14],98.9%
same,"viability, T/C",[15],95.8%
same,"viability, T/C",[16],97%
same,"viability, T/C",[17],105%
same,"viability, T/C",[18],90.5%
same,"viability, T/C",[19],99.7%
same,"viability, T/C",[20],98.5%
same,"viability, T/C",[21],100%
same,"viability, T/C",[22],97.3%
same,"viability, T/C",[23],106%
same,"viability, T/C",[24],91.4%
same,"viability, T/C",[25],102%
same,"viability, T/C",[26],98.8%
same,"viability, T/C",[27],107%
same,"viability, T/C",[28],99.8%
same,"viability, T/C",[29],106%
same,"viability, T/C",[30],99.2%
same,"viability, T/C",[31],97.9%
same,"viability, T/C",[32],96.6%
same,"viability, T/C",[33],105%
same,"viability, T/C",[34],109%
same,"viability, T/C",[35],106%
same,"viability, T/C",[36],101%
COc1cc(C2c3cc4c(cc3C(OC3OC5COC(C)OC5C(O)C3O)C3COC(=O)C23)OCO4)cc(OC)c1O (stereo unspecified) + Cc1cccc(N(C)C(=O)C2C(O)CCN2c2nc(C)cc(C(F)(F)F)c2C#N)c1,IC50,second compound 0.0316 µM,> 10 µM
same,IC50,second compound 0.1 µM,> 10 µM
same,IC50,second compound 0.316 µM,> 10 µM
same,IC50,second compound 1 µM,> 10 µM
same,IC50,second compound 3.16 µM,> 10 µM
same,IC50,second compound 10 µM,> 10 µM
same,"viability, T/C",[1],96.8%
same,"viability, T/C",[2],91.4%
same,"viability, T/C",[3],103%
same,"viability, T/C",[4],86.1%
same,"viability, T/C",[5],64.7%
same,"viability, T/C",[6],68.5%
same,"viability, T/C",[7],103%
same,"viability, T/C",[8],98.8%
same,"viability, T/C",[9],97.1%
same,"viability, T/C",[10],90.1%
same,"viability, T/C",[11],58.6%
same,"viability, T/C",[12],72.1%
same,"viability, T/C",[13],107%
same,"viability, T/C",[14],108%
same,"viability, T/C",[15],96.4%
same,"viability, T/C",[16],93.3%
same,"viability, T/C",[17],65.8%
same,"viability, T/C",[18],68.3%
same,"viability, T/C",[19],108%
same,"viability, T/C",[20],97.6%
same,"viability, T/C",[21],98.9%
same,"viability, T/C",[22],95.7%
same,"viability, T/C",[23],70.5%
same,"viability, T/C",[24],69.3%
same,"viability, T/C",[25],113%
same,"viability, T/C",[26],105%
same,"viability, T/C",[27],102%
same,"viability, T/C",[28],88.5%
same,"viability, T/C",[29],79.9%
same,"viability, T/C",[30],63.1%
same,"viability, T/C",[31],117%
same,"viability, T/C",[32],104%
same,"viability, T/C",[33],105%
same,"viability, T/C",[34],91.6%
same,"viability, T/C",[35],80%
same,"viability, T/C",[36],65.2%

# Source: PubChem BioAssay AID1963850 (Molecular Pharmacology Branch, DTP, NCI, 2024)
